Reference: US10611748B2, “Xanthone derivatives for the treatment of hepatitis B virus disease” (Hoffmann-La Roche Inc., priority 2017, dated 2020)

Tests used:
[1] = test system: extracellular HBsAg level in HBV-infected PHH; assay: Cryopreserved primary human hepatocytes (PHH) assay, HBsAg; assay type: cell-based; conditions: Hepatitis B virus, Hepatocyte, 216 h, read-out: HBsAg IC50
Experimental: (§1) Cryopreserved PHH (BioreclamationIVT, Lot YJM) was thawed at 37° C. and gently transferred into pre-warmed InVitroGRO HT medium (BioreclamationIVT, Cat. S03317). The mixture was centrifuged at 70 relative centrifugal force (RCF) for 3 minutes at RT, and the supernatant was discarded. Pre-warmed InVitroGRO CP medium (BioreclamationIVT, Cat # S03316) was added to the cell pellet to gently re-suspend cells. The cells were seeded at the density of 5.8×10^4 cells per well to collagen I coated 96-well plate (Gibco, Cat. A1142803) with the InVitroGRO CP medium. All plates were incubated at 37° C. with 5% CO2 and 85% humidity.
(§2) At 20 hours after plating, the medium was changed to PHH culture medium (Dulbecco's Modified Eagle Medium (DMEM)/F12 (1:1) (Gibco, Cat. 11320-033), 10% fetal bovine serum (Gibco Cat. 10099141), 100 U/mL penicillin, 100 μg/mL streptomycin (Gibco, Cat. 151401-122), 5 ng/mL human epidermal growth factor (Invitrogen Cat. PHG0311L), 20 ng/mL dexamethasone (Sigma, Cat. D4902) and 250 ng/mL human recombinant insulin (Gibco, Cat. 12585-014)). And the cells were incubated at 37° C. with 5% CO2 and 85% humidity for 4 hours. The medium was then changed to pre-warmed PHH culture medium containing 4% polyethylene glycol (PEG) MW8000 (Sigma, Cat. P1458-50ML) and 1% DMSO (Sigma, Cat. D2650). 5.8×10^6 genomic equivalents of HBV were added into the medium.
(§3) At 24 hours post-infection, the cells were gently washed with PBS and refreshed with PHH culture medium supplemented with 1% DMSO, and 0.25 mg/mL Matrix gel (Corning, Cat. 356237) at 200 μL per well. All plates were immediately placed in at 37° C. CO2 incubator.
(§4) 24 hours later, serial dilutions of compounds made with DMSO were further diluted with the same culture medium (PHH culture medium supplemented with 1% DMSO and 0.25 mg/mL Matrix gel as described above) before they were added to the cells to reach desired final compound concentrations and 1% DMSO concentration. The medium containing the compounds were refreshed every three days.
(§5) At 9 days post-compound treatment, extracellular HBsAg level were measured with Chemiluminescence Immuno Assay (CLIA) kit (Autobio, HBsAg Quantitative CLIA). Extracellular HBV DNA was extracted by MagNA Pure 96 system (Roche) and then determined by quantitative PCR with the following primers and probe: HBV-Forward Primer (SEQ ID NO:2): […] (5′ to 3′); HBV-Reverse Primer (SEQ ID NO:3): […](5′ to 3′); HBV-Probe: 5′+tetramethylrhodamine+SEQ ID NO:4+black hole quencher 2-3′, wherein SEQ ID NO:4 is […].
(§6) HBsAg IC50 and HBV DNA IC50 values were derived from the dose-response curve using 4 parameter logistic curve fit method.

[2] = test system: extracellular HBV DNA in HBV-infected PHH; assay: Cryopreserved primary human hepatocytes (PHH) assay, HBV DNA; assay type: cell-based; conditions: Hepatitis B virus, Hepatocyte, 216 h; cryopreserved PHH infected with HBV, 9 days post-compound treatment, quantitative PCR
Experimental: as §1, §2, §3, §4, §5, §6

Row | SMILES | IC50 [1] | IC50 [2]
1 | O=C(O)C1CCN(c2ccc3c(=O)c4c(Cl)ccc(Cl)c4oc3c2)C1 (stereo not drawn) [Example 26, 1-(5,8-dichloro-9-oxo-xanthen-3-yl)pyrrolidine-3-carboxylic Acid] | 1.17 µM | 
2 | O=C(O)C1CCN(c2ccc3c(=O)c4cccc(F)c4oc3c2)C1 (stereo not drawn) [Example 5, 1-(5-fluoro-9-oxo-xanthen-3-yl)pyrrolidine-3-carboxylic acid] | 17.8 µM | 9.62 µM
3 | O=C(O)[C@@H]1CCN(c2ccc3c(=O)c4cccc(Cl)c4oc3c2)C1 [Example 3, (3R)-1-(5-chloro-9-oxo-xanthen-3-yl)pyrrolidine-3-carboxylic acid] | 1.64 µM | 1.61 µM
4 | O=C(O)C1CCN(c2ccc3c(=O)c4cccc(Cl)c4oc3c2)C1 (stereo not drawn) [Example 2, 1-(5-chloro-9-oxo-xanthen-3-yl)pyrrolidine-3-carboxylic acid] | 1.33 µM | 2.3 µM
5 | O=C(O)[C@H]1CCN(c2ccc3c(=O)c4cccc(Cl)c4oc3c2)C1 [Example 4, (3S)-1-(5-chloro-9-oxo-xanthen-3-yl)pyrrolidine-3-carboxylic acid] | 1.58 µM | 1.93 µM
